Assay results from PubChem BioAssay AID488803 (Sanford-Burnham Center for Chemical Genomics, 2010).
Calls of active or inactive are those of the source.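 The calls were made as follows: active = mean IC50 below 10 µM; inactive = the rest.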

Molecular target: Apelin receptor (Homo sapiens) (UniProt P35414)
Experiment: APJ antagonists, beta-arrestin recruitment, SAR follow-up, cell-based, luminescence, set 2 (AID 488803)
Settings: CHO-K1 APJ PathHunter beta-arrestin, antagonist

Chain of Apelin receptor (Homo sapiens) (P35414 whole entry, looked up): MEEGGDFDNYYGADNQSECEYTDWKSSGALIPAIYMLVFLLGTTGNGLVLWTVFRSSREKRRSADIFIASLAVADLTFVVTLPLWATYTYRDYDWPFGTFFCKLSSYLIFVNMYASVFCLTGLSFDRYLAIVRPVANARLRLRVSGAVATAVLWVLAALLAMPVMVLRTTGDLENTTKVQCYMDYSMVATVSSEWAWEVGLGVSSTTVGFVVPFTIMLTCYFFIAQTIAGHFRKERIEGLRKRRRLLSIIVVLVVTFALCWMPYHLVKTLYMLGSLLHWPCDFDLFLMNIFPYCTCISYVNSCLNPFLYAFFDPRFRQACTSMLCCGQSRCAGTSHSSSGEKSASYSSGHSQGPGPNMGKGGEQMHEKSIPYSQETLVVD

Row | SMILES | IC50
1 | O=C(Oc1coc(CSc2ccccc2)cc1=O)c1ccc(Cl)c([N+](=O)[O-])c1 | 9.61 µM
2 | O=C(Oc1coc(CSc2ncccn2)cc1=O)c1ccc(C(F)(F)F)cc1 | inactive
3 | Cc1ccnc(SCc2cc(=O)c(OCc3ccccc3)co2)n1 | > 79 µM (inactive)
4 | C=CCOc1ccc(COc2ccccc2)cc1 | > 79 µM (inactive)
5 | Cc1ccnc(SCc2cc(=O)c(OC(=O)c3cccc([N+](=O)[O-])c3)co2)n1 | inactive
6 | C=CCOc1cccc(CSc2ncccn2)c1 | > 79 µM (inactive)
7 | Cc1ccc(C)c(NCC(O)c2ccc(Cl)cc2)c1 (stereo not given) | > 79 µM (inactive)
8 | Cc1ccc(C(=O)Oc2coc(CSc3ncccn3)cc2=O)cc1[N+](=O)[O-] | 7.25 µM
9 | Cc1c(C(=O)Oc2coc(CSc3ncccn3)cc2=O)cccc1[N+](=O)[O-] | inactive
10 | COc1cccc(C(=O)Oc2coc(CSc3nccc(C)n3)cc2=O)c1 | > 79 µM (inactive)
11 | Cc1ccnc(SCc2cc(=O)c(OC(=O)c3ccccc3C)co2)n1 | > 79 µM (inactive)
12 | CC1(C)CC2(CC(c3ccc(Cl)cc3)c3ccc(O)cc3O2)NC(=S)N1 (stereo not given) | inactive
13 | C=CCOc1ccc(CSc2nccc(C)n2)cc1 | > 79 µM (inactive)
14 | C=CCOc1cccc(CSc2nccc(C)n2)c1 | > 79 µM (inactive)
15 | Cc1cc(C)nc(SCc2cc(=O)c(OC(=O)c3ccc(Cl)c([N+](=O)[O-])c3)co2)n1 | 5.45 µM
16 | Cc1ccnc(SCc2cc(=O)c(OC(=O)c3cccc(Cl)c3)co2)n1 | > 79 µM (inactive)
17 | C=CCOc1ccc(CSc2nc(C)cc(C)n2)cc1OC | > 79 µM (inactive)
18 | CC(C)Oc1ccc(C(=O)Oc2coc(CSc3ncccn3)cc2=O)cc1 | > 79 µM (inactive)
19 | Cc1ccnc(SCc2cc(=O)c(OC(=O)c3cccs3)co2)n1 | > 79 µM (inactive)
20 | Cc1ccc(C(=O)Oc2coc(CSc3ncccn3)cc2=O)cc1 | > 79 µM (inactive)
21 | Cc1ccccc1NCC(=O)c1ccc(Cl)cc1 | 1.42 µM
22 | Cc1cc(C)nc(SCc2ccc(OC(=O)c3ccccc3)c(Cl)c2)n1 | > 79 µM (inactive)

Row | SMILES | IC50
23 | Cc1ccnc(SCc2cc(=O)c(OC(=O)c3cc([N+](=O)[O-])ccc3Cl)co2)n1 | inactive
24 | Cc1ccnc(SCc2cc(=O)c(OC(=O)c3ccco3)co2)n1 | > 79 µM (inactive)
25 | CSc1cccc(N=C2C(=O)Nc3ccccc32)c1 | 9.84 µM
26 | CC(=O)Oc1cc2c(cc1Cl)C(c1ccccc1Cl)CC1(CC(C)(C)NC(=S)N1)O2 (stereo not given) | > 79 µM (inactive)
27 | C=CCOc1cccc(CSc2nc(C)cc(C)n2)c1 | > 79 µM (inactive)
28 | Cc1ccc(NCC(O)c2ccccc2)cc1 (stereo not given) | > 79 µM (inactive)
29 | Cc1cc(C)nc(SCc2cc(=O)c(OC(=O)c3ccc(C)c([N+](=O)[O-])c3)co2)n1 | inactive
30 | Cc1cc(C)nc(SCc2cc(=O)c(OC(=O)c3cc([N+](=O)[O-])ccc3Cl)co2)n1 | inactive
31 | Cc1cccc(C2CC3(CC(C)(C)NC(=S)N3)Oc3cc(O)c(Cl)cc32)c1 (stereo not given) | inactive
32 | N#Cc1ccc(C(=O)Oc2coc(CSc3ncccn3)cc2=O)cc1 | 6.59 µM
33 | CC1(C)CC2(CC(c3ccccc3Cl)c3ccc(OC(=O)c4ccccc4)cc3O2)NC(=S)N1 (stereo not given) | inactive
34 | Cc1ccnc(SCc2cc(=O)c(OC(=O)c3cc(Cl)ccc3[N+](=O)[O-])co2)n1 | inactive
35 | Cc1cccc(C(=O)Oc2coc(CSc3nccc(C)n3)cc2=O)c1 | > 79 µM (inactive)
36 | Cc1cc(C)nc(SCc2cc(=O)c(OC(=O)c3cccc([N+](=O)[O-])c3C)co2)n1 | > 79 µM (inactive)
37 | C=CCSC1=NC2(CC(c3ccccc3)c3c(C)cc(O)cc3O2)CC(C)(C)N1 (stereo not given) | > 79 µM (inactive)
38 | O=C(Oc1coc(CSc2ncccn2)cc1=O)c1ccccc1 | > 79 µM (inactive)
39 | Cc1cc(C)nc(SCc2cc(=O)c(O)co2)n1 | > 79 µM (inactive)
40 | COc1cc(C(=O)Oc2coc(CSc3ncccn3)cc2=O)c([N+](=O)[O-])cc1OC | > 79 µM (inactive)
41 | O=C(Oc1coc(CSc2ncccn2)cc1=O)c1ccc(-c2ccccc2)cc1 | > 79 µM (inactive)
42 | Cc1ccnc(SCc2cc(=O)c(OC(=O)c3ccc(S(=O)(=O)N4CCCC4)cc3)co2)n1 | > 79 µM (inactive)
43 | O=C(Oc1coc(CSc2ncccn2)cc1=O)c1cccc([N+](=O)[O-])c1 | inactive
44 | Cc1cc(C)nc(SCc2cc(=O)c(OC(=O)c3ccc(S(=O)(=O)N(C)C)cc3)co2)n1 | > 79 µM (inactive)

Row | SMILES | IC50
45 | COc1ccccc1NCC(=O)c1ccc(Cl)cc1 | 1.7 µM
46 | Cc1ccnc(SCc2cc(=O)c(O)co2)n1 | > 79 µM (inactive)
47 | CC1(C)CC2(CC(c3ccccc3Cl)c3ccc(O)cc3O2)NC(=O)N1 (stereo not given) | > 79 µM (inactive)
48 | COc1cc(CSc2nc(C)cc(C)n2)ccc1O | > 79 µM (inactive)
49 | Cc1ccnc(SCc2cc(=O)c(OC(=O)c3ccc(OC(F)(F)F)cc3)co2)n1 | > 79 µM (inactive)
50 | COc1ccc(C(=O)Oc2coc(CSc3ncccn3)cc2=O)cc1 | > 79 µM (inactive)
51 | Cc1ccc(C(=O)Oc2coc(CSc3ncccn3)cc2=O)cc1C | > 79 µM (inactive)
52 | COc1ccc(C2CC3(CC(C)(C)NC(=S)N3)Oc3cc(OC(C)=O)cc(C)c32)cc1 (stereo not given) | inactive
53 | COc1ccc(NC2C(=O)Nc3ccccc32)cc1 (stereo not given) | > 79 µM (inactive)
54 | O=c1cc(CSc2ccccc2)occ1O | > 79 µM (inactive)
55 | Cc1ccc(NCC(=O)c2ccccc2)cc1 | 2.53 µM
56 | Cc1cccc(C2CC3(CC(C)(C)NC(=S)N3)Oc3cc(O)cc(C)c32)c1 (stereo not given) | inactive
57 | CSC1=NC2(CC(c3ccccc3)c3cc(Cl)c(O)cc3O2)CC(C)(C)N1 (stereo not given) | > 79 µM (inactive)
58 | COc1ccccc1NC(=O)CN1C(=O)C(=O)c2ccccc21 | inactive
59 | CCCCOc1ccc(C(=O)Oc2coc(CSc3ncccn3)cc2=O)cc1 | > 79 µM (inactive)
60 | Cc1ccnc(SCc2cccc(O)c2)n1 | > 79 µM (inactive)
61 | O=C(O)CN1C(=O)C(=O)c2ccccc21 | > 79 µM (inactive)
62 | Cc1cc(C)nc(SCc2cccc(O)c2)n1 | > 79 µM (inactive)
63 | Cc1ccnc(S(=O)(=O)Cc2cc(=O)c(OC(=O)c3ccc(Cl)c([N+](=O)[O-])c3)co2)n1 | 3.21 µM
64 | Cc1ccnc(SCc2cc(=O)c(OC(=O)c3ccccc3Cl)co2)n1 | inactive
65 | Cc1ccnc(SCc2cc(=O)c(OC(=O)c3ccc(C)c([N+](=O)[O-])c3)co2)n1 | 4.7 µM
